Reference: patent US9982265B2, “Inhibition of Bruton's tyrosine kinase (Btk) in the lung to treat severe lung inflammation and lung injury” (BOARD OF REGENTS, THE UNIVERSITY OF TEXAS SYSTEM, priority 2014, dated 2018)

How the values were obtained:
[1] = test system: ApoE−/− mice fed Western Diet and exposed to SHS; assay: Second hand smoke-induced emphysema/COPD model, PicroSirius Red and Hart's Elastin lung staining; format: in vivo; conditions: i.v. twice a week for 4 weeks, FIG. 18, 19
From the text: Second Hand Smoke (SHS)-Induced COPD: Chronic exposure of mice to SHS induces abnormal pulmonary inflammation, airway remodeling and airspace enlargement due to destruction of alveolar walls which are characteristic of COPD (Pappas et al., supra). The present studies used both wild-type (WT) mice exposed to SHS and apolipoprotein E-(ApoE^−/−)-genetically deficient mice to study comorbidities of COPD. The targeted deletion of the apoE gene leads to severe hypercholesterolemia and spontaneous atherosclerosis. Lesions of ApoE^−/− mice resemble their human counterparts and develop over time from initial fatty streaks to complex lesions. (A high-fat, high-cholesterol diet can strongly accelerate the process.) Exposure of ApoE^−/− mice to SHS triggers characteristic decline of lung function that is seen in patients with COPD (Arunachalam, G. et al., supra). ApoE^−/− mice were fed a regular diet (control) and a high fat/cholesterol (1%) diet to shorten the time required for the development of atherosclerosis.
WT and ApoE^−/− diet groups were divided into equal subgroups: control and SHS. SHS groups were exposed to cigarette smoke for 4 h per day, 5 days a week, for up to 20 weeks. A Teague TE-10 microprocessor-controlled smoking machine was used to produce side stream mixed with a smaller amount of main stream smoke. […] TSP values were measured twice a week or as necessary. […]

[2] = test system: mice with anti-KC:KC IC ALI; assay: anti-KC:KC IC model of ALI, Lung Injury Score; format: in vivo; conditions: Table 4; mice immunized with KC then given KC; score 0 to 2; means ± SD, 3 animals per group
Method: Anti-KC:KC immune complexes were prepared according to the protocol routinely used in our laboratory (28). Some mice received Btk specific siRNA intranasally. In other experiments the animals were treated i.n. with siRNA specific for Btk (see SEQ ID NOs:18-25) or MMP-9 (Invitrogen), both conjugated (T3™-MAX Conjugation Kit (Bioo Scientific Corporation, Austin, Tex.) to F(ab′)2 fragments of anti-mouse neutrophil antibody Ly-6G1A8). F(ab′)2 fragments alone or conjugated to control siRNA (SEQ ID NO's 26 and 27) (Invitrogen) served as controls of the treatment. Two or fourteen hours after i.n. administration of either immune complexes or saline, the animals were euthanized and samples collected for further evaluation. To study role of neutrophil FcγRIII receptors neutrophils were first depleted by i.p. injection of vinblastine (31) followed by adoptive transfer of cells deficient in FcγRIII receptors prepared as described below. […] Lung dysfunction was assessed by analysis of pulmonary histopathology.
Pulmonary Histopathology: Lungs were fixed in ExCellPlus (AMTS, Lodi, Calif.), embedded in paraffin, and sectioned at 5 μm. […] The images of stained sections were evaluated for the presence of alveolar exudate, infiltration of inflammatory cells, and interstitial thickening. Lung Injury Score (LIS) was assessed as described earlier (28). Most images were assessed at magnification of over 400×. […] At the minimum twenty sections from each group of mice were evaluated and 4 investigators participated in the analysis of 50 or more fields per group. According to recommendation of “An Official American Thoracic Society Workshop Report: Features and Measurements of Experimental Acute Lung Injury in Animals” (Am J Respir Cell Mol Biol 44 725-738, 2011) more than 20 high power fields were independently scored (as described above) and at least 50% of each field was occupied by lung alveoli. […]

Row | SMILES | effect on symptoms of emphysema/COPD [1] | Lung Injury Score: Edema fluid [2] | Lung Injury Score: Inflammatory infiltration [2] | Lung Injury Score: Thickening of alveolar septa [2]
1 | C=CC(=O)N1CCC[C@@H](n2nc(-c3ccc(Oc4ccccc4)cc3)c3c(N)ncnc32)C1 [PCI-32765, 1-[(3R)-3-[4-amino-3-(4-phenoxyphenyl)-pyrazolo[3,4-d]pyrimidin-1-yl]piperidin-1-yl]prop-2-en-1-one] | dramatic protective effect |  |  | 
2 | CC[C@]1(O)C[C@@H]2CN(CCc3c([nH]c4ccccc34)[C@@](C(=O)OC)(c3cc4c(cc3OC)N(C)[C@H]3[C@@](O)(C(=O)OC)[C@H](OC(C)=O)[C@]5(CC)C=CCN6CC[C@]43[C@@H]65)C2)C1 [vinblastine] |  | 0.033 ± 0.029 | 0.167 ± 0.029 | 0.133 ± 0.153
